This passage reports carcinogen call results from PubChem BioAssay AID1259411 (Chemical Carcinogenesis Research Information System (CCRIS), 2018).

The subject of this data set is rodent carcinogenicity bioassays, tumor incidence. The data set is described as follows: CCRIS carcinogenicity studies. An outline of the steps:
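NCI-built, expert-reviewed records of carcinogenicity and related test outcomes (mutagenicity, tumor promotion/inhibition) compiled from published and report sources, historical span 1985-2011, not updated.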

The structures appear in SMILES notation. Calls of active or inactive are those of the source. No rule for the calls is given here.

As for `CC(=O)Nc1ccc2c(c1)Cc1ccccc1-2`, the carcinogen call by setting is: (Species: DOG, Strain/Sex: BEAGLE, Route: ORAL, Dose: 8.3-10.9 MG/KG/D (AVE DAILY INTAKE) FOR 68.5-91 MO (TOTAL DOSE: 90-198 G), Tumor Site: Type of Lesion: LIVER: CARCINOMA, URINARY BLADDER: PAPILLOMA) “active; positive”; (Species: FISH, Strain/Sex: GUPPY/ MALE, FEMALE, Route: IMMERSION, Dose: 0, 1 MG/L IN WELL WATER FOR 1 6 HR EXPOSURE OR FOR 1,2,3 OR 4 12 HR EXPOSURES, MULTIPLE EXPOSURES GIVEN AT WEEKLY INTERV) “inactive; negative”; (Species: FISH, Strain/Sex: GUPPY/ MALE, FEMALE, Route: IMMERSION, Dose: 0, 1 MG/L IN WELL WATER FOR 7 D CONTINUOUS EXPOSURE, SOLUTIONS RENEWED EVERY 24 HR (STUDY DURATION: 52 WK), Tumor Site: Type of Lesion: LIVER: TUMOR) “active; positive”; (Species: FISH, Strain/Sex: MEDAKA/ MALE, FEMALE, Route: IMMERSION, Dose: 0, 1 MG/L IN WELL WATER FOR 1 6 HR EXPOSURE OR FOR 1,2,3 OR 4 12 HR EXPOSURES, MULTIPLE EXPOSURES GIVEN AT WEEKLY INTERV) “inactive; negative”; (Species: FISH, Strain/Sex: MEDAKA/ MALE, FEMALE, Route: IMMERSION, Dose: 0, 1 MG/L IN WELL WATER FOR 7 D CONTINUOUS EXPOSURE, SOLUTIONS RENEWED EVERY 24 HR (STUDY DURATION: 52 WK)) “inactive; negative”; (Species: HAMSTER, Strain/Sex: SYRIAN/ MALE, FEMALE, Route: INTRAPERITONEAL, ORAL, Dose: 5 MG/100 G 3/WK FOR 3 WK, THEN 0.06% IN DIET, Tumor Site: Type of Lesion: URINARY BLADDER, LIVER: CHOLANGIOCARCINOMA) “active; positive”. Also, the carcinogen call is, setting by setting: (Species: HAMSTER, Strain/Sex: SYRIAN/FEMALE, Route: ORAL, Dose: 0.025% IN DIET FOR LIFE, Tumor Site: Type of Lesion: LIVER: INTRAHEPATIC BILE DUCT CARCINOMA) “active; positive”; (Species: HAMSTER, Strain/Sex: SYRIAN, Route: ORAL, Dose: 5 MG FOR 22 WK THEN 15 MG FOR 4 WK, THEN 10 MG 2/WK AFTER 42 WK, Tumor Site: Type of Lesion: URINARY BLADDER: CARCINOMA) “active; positive”; (Species: MOUSE, Strain/Sex: BALB/C/FEMALE, Route: ORAL, Dose: 0, 75, 100, 150 PPM IN DIET UP TO 33 MO (STUDY DURATION: 33 MO), Dose: 0, 75, 100, 150 PPM IN DIET UP TO 33 MO (STUDY DURATION: 33 MO), Tumor Site: Type of Lesion: LIVER: HEPATOCELLULAR ADENOMA OR CARCINOMA, BLADDER: TRANSITIONAL CELL CARCINOMA) “active; positive”; (Species: MOUSE, Strain/Sex: CBA/ MALE, FEMALE, Route: ORAL, Dose: 3 MG/MOUSE 2/WK, Tumor Site: Type of Lesion: MAMMARY GLAND, URINARY BLADDER, LIVER, Tumor Site: Type of Lesion: MAMMARY GLAND, URINARY BLADDER, LIVER) “active; positive”; (Species: MOUSE, Strain/Sex: EU-PIM-1/FEMALE, Route: GAVAGE, Dose: 0, 25, 100 MG/KG 1/D FOR 38 WK (STUDY DURATION: 38 WK), Dose: 0, 25, 100 MG/KG 1/D FOR 38 WK (STUDY DURATION: 38 WK)) “inactive; negative”; (Species: MOUSE, Strain/Sex: EU-PIM-1/MALE, Route: GAVAGE, Dose: 0, 25, 100 MG/KG 1/D FOR 38 WK (STUDY DURATION: 38 WK), Dose: 0, 25, 100 MG/KG 1/D FOR 38 WK (STUDY DURATION: 38 WK), Tumor Site: Type of Lesion: LYMPHATIC SYSTEM: LYMPHOMA) “active; positive”. The carcinogen call is “active; positive” (Species: MOUSE, Strain/Sex: R-III/ MALE, FEMALE, Route: ORAL, Dose: 3 MG/MOUSE 2/WK, Tumor Site: Type of Lesion: URINARY BLADDER, LIVER); “active; positive” (Species: MOUSE, Strain/Sex: STRAIN-A/ MALE, FEMALE, Route: ORAL, Dose: 3 MG/MOUSE 2/WK, Tumor Site: Type of Lesion: URINARY BLADDER); “active; positive” (Species: MOUSE, Strain/Sex: STRAIN-IF/ MALE, FEMALE, Route: ORAL, Dose: 3 MG/MOUSE 2/WK, Tumor Site: Type of Lesion: URINARY BLADDER, LIVER, MAMMARY GLAND, Tumor Site: Type of Lesion: URINARY BLADDER, LIVER, MAMMARY GLAND); “active; positive” (Species: RABBIT, Strain/Sex: NZW/ MALE, FEMALE, Route: ORAL, Dose: 100 MG 2/WK (TOTAL DOSE 21-52 G AS POWDER), Tumor Site: Type of Lesion: URINARY BLADDER: PAPILLOMA, ADENOCARCINOMA, URETER: PAPILLOMA, ADENOCARCINOMA); “active; positive” (Species: RABBIT, Strain/Sex: NZW/FEMALE, Route: ORAL, Dose: 100 MG IN 1 ML CORN OIL 2/WK FOR LIFE, Tumor Site: Type of Lesion: URINARY BLADDER: TRANSITIONAL CELL TUMOR, KIDNEY: TRANSITIONAL CELL TUMOR); “active; positive” (Species: RAT, Strain/Sex: AES/FEMALE, Route: ORAL, Dose: 300 MG/KG IN SEMI-PURIFIED OR STOCK DIET, Tumor Site: Type of Lesion: EAR (DUCT): CARCINOMA). The carcinogen call runs as follows: (Species: RAT, Strain/Sex: ALBINO/ MALE, FEMALE, Route: ORAL, Dose: 0.036% IN DIET FOR 8 MO, Tumor Site: Type of Lesion: LIVER: HEPATOMA, MAMMARY GLAND, EAR (DUCT), Tumor Site: Type of Lesion: LIVER: HEPATOMA, MAMMARY GLAND, EAR (DUCT)) “active; positive”; (Species: RAT, Strain/Sex: ALBINO/FEMALE, Route: ORAL, Dose: 0.125% IN DIET, Tumor Site: Type of Lesion: URINARY BLADDER: CARCINOMA) “active; positive”.
